Measured values from US6603023B2 (priority 1996, dated 2003).
pIC50: −log10 of the molar value. Values joined by “and” are separate entries in the source; they are usually repeats but may differ in a detail not shown here. Equal entries are not always repeated. “Also recorded” adds a separate entry of the source. Where two headings read alike, the source gives them in different places. Marks after values point to notes of the source that are not given here.

How the values were obtained:
[1] = tested on: human mammary carcinoma MX-1 xenograft; set-up: Toxicity toward Nude Mice: key to the marks not given beside the values; details: for Toxicity toward Nude Mice: based on body weight decrease or lethality; for Therapeutic Effect against MX-1 Xenograft: based on tumor volume reduction vs untreated control
Method: (§1) DMSO was used as a vehicle for epothilones. Each mouse received ≦40 μL DMSO in all experiments.
(§2) Athymic nude mice (nu/nu) were used for MX-1 and MCF-7/Adr human mammary carcinoma xenografts. Mice were obtained from Taconic Laboratory Animals and Service (Germantown, N.Y.: outbred, Swiss background).

[2] = tested on: MDR human mammary adenocarcinoma MCF-7/Adr xenograft; assay: in vivo; details: for toxicity: dEpoB 35 mg/kg Q2Dx5 i.p.
Method: as §1, §2

MCF-7 = assay: SRB cytotoxicity, MCF-7; format: cell-based, human; details: Table 1C; SRB, 72 h; read-out: IC50
In short: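 Monolayer MCF-7 cultures exposed to six to seven drug concentrations in duplicate, then fixed with trichloroacetic acid and stained 30 min with 0.4% sulforhodamine B. Bound dye extracted with unbuffered Tris base, absorbance read at 570 nm; values derived by median-effect plot analysis.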

[3] = dEpo B 15 mg/kg i.v. Q2Dx5 from day 9
[4] = dEpo B 15 mg/kg i.v. Q2Dx5 from day 9, day 13
[5] = dEpo B 15 mg/kg i.v. Q2Dx5 from day 9, day 15
[6] = dEpo B 15 mg/kg i.v. Q2Dx5 from day 9, day 17
[7] = dEpo B 15 mg/kg i.v. Q2Dx5 from day 9, day 19
[8] = i.p., Cremophor-EtOH, 15 mg/kg Q2D x 5 (dose of dEpoB)
[9] = i.p., DMSO, 35 mg/kg Q2D x 5 (dose of dEpoB)
[10] = i.v. infusion 6 hr, Cremophor-EtOH, 30 mg/kg Q2D x 5 (dose of dEpoB)
[11] = i.v. infusion 24 hr, Cremophor-EtOH, 60 mg/kg Q4D x 2 (dose of dEpoB)
[12] = i.v. injection, DMSO, 15 mg/kg Q2D x 5 (dose of dEpoB)
[13] = i.v. injection, DMSO, 24 mg/kg Q2D x 5 (dose of dEpoB)
[14] = 35 mg/kg i.p. Q2Dx5 from day 8, day 11
[15] = 35 mg/kg i.p. Q2Dx5 from day 8, day 13
[16] = 35 mg/kg i.p. Q2Dx5 from day 8, day 15
[17] = 35 mg/kg i.p. Q2Dx5 from day 8, day 17

## C/C1=C/C[C@@H](/C(C)=C/c2csc(C)n2)OC(=O)C[C@H](O)C(C)(C)C(=O)[C@H](C)[C@@H](O)[C@@H](C)CCC1 [Desoxyepothilone B, desoxyepothilone B]
[1]; 25-40 mg/kg, Q2Dx5, i.p.
  therapeutic outcome: marked tumor regression and cures
[1]; 6 hr i.v. infusion
  therapeutic outcome: full cure
[1]; [3]
  Toxicity Death: 4/6^b
  Tumor Disapp.: 0/6
[1]; [4]
  Average Body Weight Change: 0 g
  Average Tumor Size (T/C): 0.47
[1]; [5]
  Average Body Weight Change: -0.6 g
  Average Tumor Size (T/C): 0.30
[1]; [6]
  Average Body Weight Change: -1.1 g
  Average Tumor Size (T/C): 0.10
[1]; [7]
  Average Body Weight Change: -2.6 g
  Average Tumor Size (T/C): 0.04
[1]; dEpoB 35 mg/kg i.p. Q2Dx5, day 19
  tumor size treated/control: 0.02
[1]; extended 40 mg/kg i.p. every other day from day 18, 5 more doses
  mice with tumor disappearing on day 28 (or day 31): 5 out of 10
[1]; extended experiment, Desoxyepo B 40 mg/kg i.p., in 5/10 mice
  Average Tumor Disappearance Duration: 44 (5/10) Day
[1]; [8]
  Toxicity toward Nude Mice: +++++
  Therapeutic Effect against MX-1 Xenograft: +
[1]; [9]
  Toxicity toward Nude Mice: ++
  Therapeutic Effect against MX-1 Xenograft: +++++
[1]; [10]
  Toxicity toward Nude Mice: ++
  Therapeutic Effect against MX-1 Xenograft: +++++
[1]; [11]
  Toxicity toward Nude Mice: +++
  Therapeutic Effect against MX-1 Xenograft: +++++
[1]; [12]
  Toxicity toward Nude Mice: +++
  Therapeutic Effect against MX-1 Xenograft: ++
[1]; [13]
  Toxicity toward Nude Mice: +++
  Therapeutic Effect against MX-1 Xenograft: ++
[1]; mouse, in vivo
  # Died of toxicity: 0/10
  Average Body Weight (change), Day 14: -2.7 g
  Average Body Weight (change), Day 16: -4.0 g
  Average Body Weight (change), Day 18: -4.5 g
  Average Body Weight (change), Day 20: -6.8 g
  Average Body Weight Change, Day 20: -1.7 g
  Average Body Weight Change, Day 22: -2.4 g
  Average Body Weight Change, Day 24: -2.4 g
  Average Body Weight Change, Day 26: -1.4 g
  Average Body Weight Change, Day 28: -1.2 g
  Average Tumor Size (T/C), Day 14: 0.19 T/C
  Average Tumor Size (T/C), Day 16: 0.10 T/C
  Average Tumor Size (T/C), Day 18: 0.03 T/C
  Died: 0/10
  Lowest Average Tumor Size (T/C): 0 T/C
  Therapeutic Effects dEpoB vs Taxol: ≅
  Tumor Disappearance: 3/3 and 5/5
  Tumor Disappearance, Day 20: 2.10^b
  Tumor Disappearance, Day 22: 2/10
  Tumor Disappearance, Day 24: 3/10
  Tumor Disappearance, Day 26: 5/10
  Tumor Disappearance, Day 28: 5/10
[1]; mouse, in vivo, ip
  Therapeutic effect Rank Order: dEpoB > Camptothecin >; also recorded: dEpoB > Adriamycin > Taxol ®
[1]; mouse, in vivo, iv
  Therapeutic effect Rank Order: Taxol ® ≈ dEpoB
[1]; surviving mice 4, 5, 9, 35 mg/kg on day 8-16, 40 mg/kg on day 18-26, then no treatment
  Tumor Size, individual mice, Day 60: 0 mm^3 (2×) and 4 mm^3
[2]; 35 mg/kg i.p. Q2Dx5 from day 8
  Toxicity Death: 0/8
[2]; [14]
  Average Body Weight Change: 0.3 g
  Average Tumor Size (T/C): 0.31**
[2]; [15]
  Average Body Weight Change: +0.7 g
  Average Tumor Size (T/C): 0.27***
[2]; [16]
  Average Body Weight Change: +0.6 g
  Average Tumor Size (T/C): 0.30***
[2]; [17]
  Average Body Weight Change: +0.8 g
  Average Tumor Size (T/C): 0.34*
[2]; 35 mg/kg, day 17
  tumor size reduction: 66%
[2]; 6 hr i.v. infusion, Q2Dx5
  therapeutic outcome: far better than Taxol®, although Q2Dx5 did not achieve a cure
[2]; listed as dEpoB
  toxicity: negligible toxicity
[2]; listed as desoxyepothilone B
  toxicity: no reduction in body weight or apparent toxicity
[2]; mouse, in vivo
  Average Body Weight (change), Day 14: -2.7 g
  Average Body Weight (change), Day 16: -4.0 g
  Average Body Weight (change), Day 18: -4.5 g
  Average Body Weight, Day 8: 30.3 g
  Average Tumor Size (T/C), Day 14: 0.16*** T/C
  Average Tumor Size (T/C), Day 16: 0.15 T/C
  Average Tumor Size (T/C), Day 18: 0.13*** T/C
  Lowest Average Tumor Size (T/C): 0.11 T/C
  Therapeutic Effects dEpoB vs Taxol: >>
  Toxicity Death: 0/3
  Tumor Disappearance: 0
[2]; mouse, in vivo, ip
  Therapeutic effect Rank Order: dEpoB >> Camptothecin >
[2]; mouse, in vivo, iv
  Therapeutic effect Rank Order: dEpoB >> VP-16,
MCF-7
  pIC50: 8.54
